# Read-outs that look alike come from different tables or passages of the source.
# How the values were obtained:
# [1] = tested on: zebrafish embryos; settings: 24-well plate
# [2] = tested on: zebrafish embryos; settings: for EC50: Danio rerio, 2 h
# [3] = tested on: zebrafish embryos; assay: animal or person; settings: Danio rerio, 2 h, read-out: absolute EC50 (50% effective concentration), tail curvature
compound,measurement,setting,value
Cn1c(=O)c2c(ncn2C)n(C)c1=O [caffeine],frequency of tail curvature (scoliosis),[1]; after 2-hour caffeine treatment,concentration dependent
same,recovery of embryos with tail curvature,[1]; after 24 hours culturing in E3 buffer,recovered to normal
same,zebrafish embryo survival rate at the end of the experiment,"[1]; all caffeine concentrations 0.0325-2 mg/mL, 2-hour treatment and 24-hour recovery",over 90%
same,zebrafish embryo survival rate,"[2]; CGG, 2-hour treatment and 24-hour recovery, compared with well plate",close to the zebrafish embryo tested in the well plate
same,"hillslope of dose-response curves, tail curvature","[2]; CGG, 3 gradients, 2-hour treatment, compared with well plate",greater than the hillslope of well plate-based dose-response curves
same,overall frequency of edema occurrences,"[2]; CGG, after 24-hour recovery at 2 ml/min, compared with well plate",significantly higher in the CGG than in the well plate
same,EC50,"[2]; read-out: absolute EC50, tail curvature, CGG, measured concentrations (trypan blue intensity), highest inner wall inlet flowrate (150 μl/min), outer wall 300 μl/min, 2-hour treatment",987 µg/mL
same,EC50,"[2]; read-out: absolute EC50, tail curvature, CGG, measured concentrations (trypan blue intensity), lowest inner wall inlet flowrate (75 μl/min), outer wall 300 μl/min, 2-hour treatment",993 µg/mL
same,EC50,"[2]; read-out: absolute EC50, tail curvature, CGG, measured concentrations (trypan blue intensity), middle inner wall inlet flowrate (100 μl/min), outer wall 300 μl/min, 2-hour treatment",1080 µg/mL
same,EC50,"[2]; read-out: absolute EC50, tail curvature, CGG, simulated concentrations, highest inner wall inlet flowrate (150 μl/min), outer wall 300 μl/min, 2-hour treatment",1210 µg/mL
same,EC50,"[2]; read-out: absolute EC50, tail curvature, CGG, simulated concentrations, lowest inner wall inlet flowrate (75 μl/min), outer wall 300 μl/min, 2-hour treatment",1180 µg/mL
same,EC50,"[2]; read-out: absolute EC50, tail curvature, CGG, simulated concentrations, middle inner wall inlet flowrate (100 μl/min), outer wall 300 μl/min, 2-hour treatment",1220 µg/mL
same,EC50,[3],690 µg/mL

# Reference: patent publication US20250147006A1, “MULTI-DEPTH SPIRAL MILLI FLUIDIC DEVICE FOR WHOLE MOUNT ZEBRAFISH ANTIBODY STAINING” (THE REGENTS OF THE UNIVERSITY OF CALIFORNIA, priority 2023, published 2025)
